Values of other authors in US6368586B1, “Methods and compositions for enhancing the bioadhesive properties of polymers” (Brown University Research Foundation, priority 1996, dated 2002).
Where two headings read alike, the source gives them in different places.

| SMILES | Acid Ionization Constants (pKa at 25° C.) for Aqua Ions | Acid Ionization Constants (pKa at 25° C.) for Aqua Ions (listed as Ni^3+) | Acid Ionization Constants (pKa at 25° C.) for Aqua Ions (listed as Fe^3+) |
| --- | --- | --- | --- |
| [Ni+2] [Ni^2+] | 10.6 | 9.7 |  |
| [Mg+2] [Mg^2+] | 11.4 |  |  |
| [Al+3] [Al^3+] | 4.9 |  |  |
| [Fe+2] [Fe^2+] | 8.3 |  | 2.2 |
| [Cu+2] [Cu^2+] | 8.0 |  |  |
| [Ca+2] [Ca^2+] | 12.6 |  |  |
| [Ba+2] [Ba^2+] | 13.2 |  |  |
